Results published in ChEMBL document CHEMBL2203234, “Optimisation of imidazole compounds as selective TAAR1 agonists: discovery of RO5073012” (Bioorg Med Chem Lett, 2012).

How the values were obtained:
[1] = molecular target: Glutamate [NMDA] receptor (Homo sapiens) (UniProt Q05586+Q12879+Q13224+O15399+O60391+Q14957+Q8TCU5); experiment: Inhibition of human NMDA receptor at 10 uM by CEREP assay
[2] = Inhibition of SKca channel at 10 uM by CEREP assay
[3] = Inhibition of GABA receptor at 10 uM by CEREP assay
[4] = molecular target: Cholecystokinin receptor type A (Homo sapiens) (UniProt P32238); experiment: Inhibition of human CCKA receptor at 10 uM by CEREP assay
[5] = Inhibition of alpha 1 adrenergic receptor at 10 uM by CEREP assay
[6] = molecular target: Muscarinic acetylcholine receptor M5 (Homo sapiens) (UniProt P08912); experiment: Inhibition of human M5 receptor at 10 uM by CEREP assay
[7] = molecular target: cGMP-dependent 3',5'-cyclic phosphodiesterase (Homo sapiens) (UniProt O00408); experiment: Inhibition of human PDE2 at 10 uM by CEREP assay
[8] = molecular target: Corticotropin-releasing factor receptor 1 (Homo sapiens) (UniProt P34998); experiment: Inhibition of human CRF1 receptor at 10 uM by CEREP assay
[9] = molecular target: Beta-1 adrenergic receptor (Homo sapiens) (UniProt P08588); experiment: Inhibition of human beta 1 adrenergic receptor at 10 uM by CEREP assay
[10] = Inhibition of sigma receptor at 10 uM by CEREP assay
[11] = molecular target: Sodium-dependent serotonin transporter (Homo sapiens) (UniProt P31645); experiment: Inhibition of human 5-HT transporter at 10 uM by CEREP assay
[12] = molecular target: Type-1 angiotensin II receptor (Homo sapiens) (UniProt P30556); experiment: Inhibition of human AT1 receptor at 10 uM by CEREP assay
[13] = Inhibition of K-ATP channel at 10 uM by CEREP assay
[14] = molecular target: Calcitonin gene-related peptide type 1 receptor (Homo sapiens) (UniProt Q16602); experiment: Inhibition of human CGRP receptor at 10 uM by CEREP assay
[15] = molecular target: 5-hydroxytryptamine receptor 7 (Homo sapiens) (UniProt P34969); experiment: Inhibition of human 5-HT7 receptor at 10 uM by CEREP assay
[16] = Inhibition of Guanylyl cyclase at 10 uM by CEREP assay
[17] = molecular target: Neuropeptide Y receptor type 2 (Homo sapiens) (UniProt P49146); experiment: Inhibition of human Y2 receptor at 10 uM by CEREP assay
[18] = molecular target: Growth hormone secretagogue receptor type 1 (Homo sapiens) (UniProt Q92847); experiment: Inhibition of human Ghrelin receptor at 10 uM by CEREP assay
[19] = molecular target: D(1A) dopamine receptor (Homo sapiens) (UniProt P21728); experiment: Inhibition of human D1 receptor at 10 uM by CEREP assay
[20] = Cmax in mouse at 7.1 mg/kg, po; format: ADME, organism-based; parameters: dose 7.1 mg/kg, route oral; conditions: in vivo
[21] = molecular target: D(1B) dopamine receptor (Homo sapiens) (UniProt P21918); experiment: Inhibition of human D5 receptor at 10 uM by CEREP assay
[22] = molecular target: Acetylcholinesterase (Homo sapiens) (UniProt P22303); experiment: Inhibition of human Acetylcholinesterase at 10 uM by CEREP assay
[23] = Cmax in rat at 10 mg/kg, po; format: ADME, organism-based; parameters: dose 10 mg/kg, route oral; conditions: in vivo
[24] = species: Homo sapiens; experiment: Inhibition of human I2 receptor at 10 uM by CEREP assay
[25] = molecular target: 5-hydroxytryptamine receptor 4 (Homo sapiens) (UniProt Q13639); experiment: Inhibition of human 5-HT4 receptor at 10 uM by CEREP assay
[26] = molecular target: Melanocyte-stimulating hormone receptor (Homo sapiens) (UniProt Q01726); experiment: Inhibition of MC1 receptor at 10 uM by CEREP assay
[27] = molecular target: Neurotensin receptor type 1 (Homo sapiens) (UniProt P30989); experiment: Inhibition of human NT1 receptor at 10 uM by CEREP assay
[28] = molecular target: Nociceptin receptor (Homo sapiens) (UniProt P41146); experiment: Inhibition of human ORL1 receptor at 10 uM by CEREP assay
[29] = Inhibition of alpha 2 adrenergic receptor at 10 uM by CEREP assay
[30] = Inhibition of tyrosine hydroxylase at 10 uM by CEREP assay
[31] = molecular target: Phosphodiesterase 6 (Homo sapiens) (UniProt Q13956+P18545+P35913+O43924+P16499+P51160); experiment: Inhibition of human PDE6 at 10 uM by CEREP assay; format: protein assay
[32] = Inhibition of P2Y receptor at 10 uM by CEREP assay
[33] = Inhibition of sst receptor at 10 uM by CEREP assay
[34] = Inhibition of alpha 2 adrenergic receptor by CEREP assay
[35] = Inhibition of central BZD receptor at 10 uM by CEREP assay
[36] = Oral bioavailability in rat at 10 mg/kg; format: ADME, organism-based; conditions: in vivo
[37] = molecular target: C-X-C chemokine receptor type 4 (Homo sapiens) (UniProt P61073); experiment: Inhibition of human CXCR4 receptor at 10 uM by CEREP assay
[38] = Inhibition of Adenylyl cyclase at 10 uM by CEREP assay
[39] = molecular target: Thyrotropin-releasing hormone receptor (Homo sapiens) (UniProt P34981); experiment: Inhibition of TRH receptor at 10 uM by CEREP assay
[40] = Inhibition of ML1 receptor at 10 uM by CEREP assay
[41] = molecular target: Thromboxane A2 receptor (Homo sapiens) (UniProt P21731); experiment: Inhibition of human TXA2/PGH2 receptor at 10 uM by CEREP assay
[42] = species: Homo sapiens; experiment: Inhibition of human AMPA receptor at 10 uM by CEREP assay
[43] = molecular target: 5-hydroxytryptamine receptor 1A (Homo sapiens) (UniProt P08908); experiment: Inhibition of human 5-HT1A receptor at 10 uM by CEREP assay
[44] = molecular target: Adenosine receptor A3 (Homo sapiens) (UniProt P0DMS8); experiment: Inhibition of human A3 receptor at 10 uM by CEREP assay
[45] = molecular target: Glucagon receptor (Homo sapiens) (UniProt P47871); experiment: Inhibition of human glucagon receptor at 10 uM by CEREP assay
[46] = molecular target: MAO-A (amine oxidase [flavin-containing] A) (Homo sapiens, UniProt P21397); experiment: Inhibition of human MAO-A at 10 uM by CEREP assay
[47] = Inhibition of Na+ channel site 2 at 10 uM by CEREP assay
[48] = molecular target: Cannabinoid receptor 1 (Homo sapiens) (UniProt P21554); experiment: Inhibition of human CB1 receptor at 10 uM by CEREP assay
[49] = species: Homo sapiens; experiment: Inhibition of human Choline transporter at 10 uM by CEREP assay

Muscarinic acetylcholine receptor M5 (Homo sapiens), sequence (P08912 whole entry): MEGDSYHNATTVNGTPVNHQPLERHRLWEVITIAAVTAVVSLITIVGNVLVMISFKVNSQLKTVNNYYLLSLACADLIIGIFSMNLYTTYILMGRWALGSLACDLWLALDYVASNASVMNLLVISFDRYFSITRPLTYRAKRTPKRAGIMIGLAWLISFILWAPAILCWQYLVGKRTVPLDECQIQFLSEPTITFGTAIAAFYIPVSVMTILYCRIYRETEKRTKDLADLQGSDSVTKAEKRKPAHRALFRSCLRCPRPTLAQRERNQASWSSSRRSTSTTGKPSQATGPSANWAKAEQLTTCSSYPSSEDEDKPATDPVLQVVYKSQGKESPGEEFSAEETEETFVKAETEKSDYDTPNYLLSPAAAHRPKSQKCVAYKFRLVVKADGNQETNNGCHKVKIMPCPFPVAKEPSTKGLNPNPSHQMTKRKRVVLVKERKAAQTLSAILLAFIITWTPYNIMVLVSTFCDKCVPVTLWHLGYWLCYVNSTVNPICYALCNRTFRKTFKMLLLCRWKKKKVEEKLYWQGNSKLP
Cannabinoid receptor 1 (Homo sapiens), sequence (P21554 whole entry): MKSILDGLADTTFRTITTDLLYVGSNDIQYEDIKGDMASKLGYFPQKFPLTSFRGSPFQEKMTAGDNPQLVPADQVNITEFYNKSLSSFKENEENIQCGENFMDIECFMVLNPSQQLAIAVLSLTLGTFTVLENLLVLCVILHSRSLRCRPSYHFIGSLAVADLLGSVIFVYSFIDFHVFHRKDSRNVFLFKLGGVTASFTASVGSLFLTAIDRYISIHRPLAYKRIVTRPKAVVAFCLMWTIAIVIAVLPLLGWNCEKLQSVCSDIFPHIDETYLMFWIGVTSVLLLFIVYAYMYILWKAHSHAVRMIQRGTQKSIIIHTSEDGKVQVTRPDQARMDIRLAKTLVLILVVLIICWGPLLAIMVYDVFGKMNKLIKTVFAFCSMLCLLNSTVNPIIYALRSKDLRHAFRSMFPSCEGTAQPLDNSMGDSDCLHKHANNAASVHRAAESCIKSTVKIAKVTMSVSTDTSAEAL
Adenosine receptor A3 (Homo sapiens), sequence (P0DMS8 whole entry): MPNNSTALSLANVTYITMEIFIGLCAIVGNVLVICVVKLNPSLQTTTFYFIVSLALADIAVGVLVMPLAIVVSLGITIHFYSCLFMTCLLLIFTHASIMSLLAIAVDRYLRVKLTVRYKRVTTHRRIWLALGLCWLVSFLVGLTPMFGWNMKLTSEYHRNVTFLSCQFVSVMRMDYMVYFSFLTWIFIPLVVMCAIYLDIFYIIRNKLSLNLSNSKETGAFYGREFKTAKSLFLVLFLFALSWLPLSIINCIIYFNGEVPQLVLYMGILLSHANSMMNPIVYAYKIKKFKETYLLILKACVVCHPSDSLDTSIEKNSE
Neurotensin receptor type 1 (Homo sapiens), sequence (P30989 whole entry): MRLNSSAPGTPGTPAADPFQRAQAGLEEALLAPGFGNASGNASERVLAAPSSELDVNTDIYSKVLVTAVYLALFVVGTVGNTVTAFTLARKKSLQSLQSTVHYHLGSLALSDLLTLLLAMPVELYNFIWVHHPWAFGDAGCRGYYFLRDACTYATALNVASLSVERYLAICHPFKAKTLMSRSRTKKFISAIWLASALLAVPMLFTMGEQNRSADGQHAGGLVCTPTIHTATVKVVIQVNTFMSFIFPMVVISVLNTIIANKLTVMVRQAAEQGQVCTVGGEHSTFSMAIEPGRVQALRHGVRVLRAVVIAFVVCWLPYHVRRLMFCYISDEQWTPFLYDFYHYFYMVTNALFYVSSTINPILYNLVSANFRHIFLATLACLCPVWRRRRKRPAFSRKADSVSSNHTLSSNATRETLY
Thyrotropin-releasing hormone receptor (Homo sapiens), sequence (P34981 whole entry): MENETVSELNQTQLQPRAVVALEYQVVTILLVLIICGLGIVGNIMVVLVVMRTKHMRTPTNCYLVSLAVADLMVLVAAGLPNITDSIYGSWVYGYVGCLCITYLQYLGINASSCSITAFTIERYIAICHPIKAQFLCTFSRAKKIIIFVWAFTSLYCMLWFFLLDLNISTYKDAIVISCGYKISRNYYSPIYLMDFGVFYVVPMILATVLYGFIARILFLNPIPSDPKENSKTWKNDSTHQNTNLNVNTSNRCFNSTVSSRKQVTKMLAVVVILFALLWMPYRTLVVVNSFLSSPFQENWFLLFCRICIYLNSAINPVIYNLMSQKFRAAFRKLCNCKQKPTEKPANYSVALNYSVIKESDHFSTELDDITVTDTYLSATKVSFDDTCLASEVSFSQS
Acetylcholinesterase (Homo sapiens), sequence (P22303 whole entry): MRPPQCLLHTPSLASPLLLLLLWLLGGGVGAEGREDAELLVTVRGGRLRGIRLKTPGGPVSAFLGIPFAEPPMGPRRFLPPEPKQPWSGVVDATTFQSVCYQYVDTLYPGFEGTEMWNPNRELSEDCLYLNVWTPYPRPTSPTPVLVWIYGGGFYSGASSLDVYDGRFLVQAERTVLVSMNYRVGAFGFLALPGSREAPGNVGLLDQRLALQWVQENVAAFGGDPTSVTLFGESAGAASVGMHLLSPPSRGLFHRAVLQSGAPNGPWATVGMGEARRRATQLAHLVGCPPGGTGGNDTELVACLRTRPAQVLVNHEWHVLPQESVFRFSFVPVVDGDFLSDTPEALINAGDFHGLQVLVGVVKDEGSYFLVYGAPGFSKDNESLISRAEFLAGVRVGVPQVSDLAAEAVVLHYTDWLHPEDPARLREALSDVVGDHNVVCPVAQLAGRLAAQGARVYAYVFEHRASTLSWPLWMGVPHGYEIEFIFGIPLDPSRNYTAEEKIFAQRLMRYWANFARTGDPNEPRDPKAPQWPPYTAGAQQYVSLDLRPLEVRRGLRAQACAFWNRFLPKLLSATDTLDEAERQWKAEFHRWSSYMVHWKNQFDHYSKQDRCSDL
Beta-1 adrenergic receptor (Homo sapiens), sequence (P08588 whole entry, looked up): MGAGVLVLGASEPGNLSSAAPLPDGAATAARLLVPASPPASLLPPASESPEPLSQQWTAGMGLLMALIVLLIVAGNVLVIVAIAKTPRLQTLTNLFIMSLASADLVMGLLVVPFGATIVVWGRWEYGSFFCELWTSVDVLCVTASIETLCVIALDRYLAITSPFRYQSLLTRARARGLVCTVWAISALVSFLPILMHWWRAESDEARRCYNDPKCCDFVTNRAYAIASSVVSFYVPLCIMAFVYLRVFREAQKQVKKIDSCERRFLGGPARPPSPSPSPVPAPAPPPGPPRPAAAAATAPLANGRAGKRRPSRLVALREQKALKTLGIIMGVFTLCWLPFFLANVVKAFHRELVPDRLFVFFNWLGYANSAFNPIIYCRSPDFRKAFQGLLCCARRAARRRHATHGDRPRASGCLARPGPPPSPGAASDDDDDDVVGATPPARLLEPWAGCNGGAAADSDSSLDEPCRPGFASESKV
D(1A) dopamine receptor (Homo sapiens), sequence (P21728 whole entry): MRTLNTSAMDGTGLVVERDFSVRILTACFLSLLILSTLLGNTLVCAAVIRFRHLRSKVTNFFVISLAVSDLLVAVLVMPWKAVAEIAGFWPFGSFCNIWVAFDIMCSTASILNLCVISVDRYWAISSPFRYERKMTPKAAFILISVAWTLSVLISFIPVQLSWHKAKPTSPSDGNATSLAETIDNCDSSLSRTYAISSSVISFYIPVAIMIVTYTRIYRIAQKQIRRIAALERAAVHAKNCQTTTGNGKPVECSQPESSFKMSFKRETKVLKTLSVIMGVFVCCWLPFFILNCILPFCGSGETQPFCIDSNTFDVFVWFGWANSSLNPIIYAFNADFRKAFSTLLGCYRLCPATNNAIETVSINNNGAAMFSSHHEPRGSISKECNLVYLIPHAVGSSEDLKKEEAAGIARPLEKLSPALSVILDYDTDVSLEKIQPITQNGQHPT
Cholecystokinin receptor type A (Homo sapiens), sequence (P32238 whole entry): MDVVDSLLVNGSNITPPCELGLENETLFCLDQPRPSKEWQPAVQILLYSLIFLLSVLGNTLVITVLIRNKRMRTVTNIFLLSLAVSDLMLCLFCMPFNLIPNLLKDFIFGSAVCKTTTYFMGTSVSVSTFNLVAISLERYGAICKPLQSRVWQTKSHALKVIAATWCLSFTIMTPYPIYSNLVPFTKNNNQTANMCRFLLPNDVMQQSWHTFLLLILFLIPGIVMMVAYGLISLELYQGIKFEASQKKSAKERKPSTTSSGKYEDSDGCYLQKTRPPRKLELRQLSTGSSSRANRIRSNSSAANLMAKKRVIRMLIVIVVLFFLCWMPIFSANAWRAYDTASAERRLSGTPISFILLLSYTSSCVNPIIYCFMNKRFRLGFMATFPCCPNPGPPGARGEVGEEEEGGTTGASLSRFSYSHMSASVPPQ
Corticotropin-releasing factor receptor 1 (Homo sapiens), sequence (P34998 whole entry): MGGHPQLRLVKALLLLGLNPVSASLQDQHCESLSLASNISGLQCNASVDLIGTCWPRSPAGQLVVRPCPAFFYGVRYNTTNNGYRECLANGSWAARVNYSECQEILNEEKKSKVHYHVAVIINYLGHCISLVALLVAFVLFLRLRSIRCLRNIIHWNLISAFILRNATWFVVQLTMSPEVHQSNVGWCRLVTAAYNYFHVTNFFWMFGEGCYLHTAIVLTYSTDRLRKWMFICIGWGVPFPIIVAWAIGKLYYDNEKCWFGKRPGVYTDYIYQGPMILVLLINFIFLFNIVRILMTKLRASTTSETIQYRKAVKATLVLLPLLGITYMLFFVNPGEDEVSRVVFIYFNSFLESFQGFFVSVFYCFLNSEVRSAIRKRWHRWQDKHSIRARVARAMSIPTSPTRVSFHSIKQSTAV
5-hydroxytryptamine receptor 4 (Homo sapiens), sequence (Q13639 whole entry): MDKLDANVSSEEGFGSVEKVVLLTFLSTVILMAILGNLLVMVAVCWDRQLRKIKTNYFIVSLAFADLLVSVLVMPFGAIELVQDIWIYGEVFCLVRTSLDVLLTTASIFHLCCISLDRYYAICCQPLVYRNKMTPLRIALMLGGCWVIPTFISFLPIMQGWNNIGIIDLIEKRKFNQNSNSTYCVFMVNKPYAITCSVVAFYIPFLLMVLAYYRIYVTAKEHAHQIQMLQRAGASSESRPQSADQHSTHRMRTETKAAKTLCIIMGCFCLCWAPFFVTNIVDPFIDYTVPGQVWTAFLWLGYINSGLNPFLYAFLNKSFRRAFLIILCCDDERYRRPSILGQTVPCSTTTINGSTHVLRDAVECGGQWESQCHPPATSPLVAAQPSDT

CCc1cccc(CC)c1Cc1ncc[nH]1
inhibition [1]: 2%
inhibition [2]: 0%
inhibition [3]: -10%
inhibition [4]: 4%
inhibition [5]: 23%
inhibition [6]: 8%
inhibition [7]: -5%
inhibition [8]: -4%
inhibition [9]: 5%
inhibition [10]: 14%
inhibition [11]: 4%
inhibition [12]: 2%
inhibition [13]: 7%
inhibition [14]: -5%
inhibition [15]: 54%
inhibition [16]: 1%
inhibition [17]: 15%
inhibition [18]: 3%
inhibition [19]: 8%
Cmax [20]: 300 ng/mL
inhibition [21]: 17%
inhibition [22]: 17%
Cmax [23]: 100 ng/mL
inhibition [24]: 59%
inhibition [25]: 8%
inhibition [26]: 2%
inhibition [27]: -3%
inhibition [28]: -3%
inhibition [29]: 73%
inhibition [30]: 1%
inhibition [31]: 6%
inhibition [32]: 1%
inhibition [33]: -6%
Ki [34]: 2400 nM
inhibition [35]: 19%
bioavailability [36]: 17%
inhibition [37]: 11%
inhibition [38]: 2%
inhibition [39]: 0%
inhibition [40]: 32%
inhibition [41]: 7%
inhibition [42]: 11%
inhibition [43]: 96%
inhibition [44]: 2%
inhibition [45]: -5%
inhibition at 10 µM [46]: -4%
inhibition [47]: 22%
inhibition [48]: 4%
inhibition [49]: 23%
